In US20090191160A1, “Methods of producing pluripotent stem-like cells” (University of Dayton, priority 2007, published 2009):

Columns and labels:
Type in all cases: cell-based, mouse
skin fibroblast cells = assay: Conversion (dedifferentiation) of skin fibroblast cells into stem cell-like cells, phase contrast morphology; details: for conversion of skin fibroblast cells into stem cell-like cells: Thapsigargin 1 μg/ml added to SR-containing medium; for reprogramming / dedifferentiation of skin fibroblast cells into stem cell-like cells: basic medium with SR or lipid-rich BSA versus basic medium only
Method: (§1) Mouse embryonic skin fibroblast cells (MEFs) derived form 13.5 day mouse embryos and adult mouse primary dermal fibroblasts derived from adult mouse skin were cultured in DMEM Dulbecco's modified Eagle's medium (DMEM) with 10% Fetal Bovine Serum (FBS) at 37° C., 10% CO2. After the cells were grown to confluence, the cells were trypsinized, then suspended in SR-containing medium or basic medium without serum. About 10^5 mouse skin fibroblast cells were transferred to 3 ml SR-containing medium in a 6 well plate. SR-containing medium contained basic medium that included DMEM/F12 (Invitrogen 11330-032), 1× non-Essential Amino Acids (Invitrogen 11140-050), 1× L-Glutamine (Invitrogen 25030-018), […] β-mercaptoethanol and 20% Knockout Serum Replacer (Invitrogen 10828-028). 4 ng/mL bFGF (R&D System Cat# 233-FB) and Leukemia inhibitory factor Lif (ESGRO®, Chemicon ESG1107) were added to the SR-containing medium to prevent stem-like cells from differentiating.
Conversion of fibroblast cells to induced pluripotent stem-like cells can be achieved by culturing a mouse embryonic skin fibroblast (MEF), mouse adult skin fibroblast (MAF) or human skin fibroblast cell in DMEM media having 10% fetal bovine serum (FBS) until the cells are confluent. Serum-replacement (SR)-containing media and 0.25% trypsin/EDTA are then warmed (e.g., at 37° C. in a water bath). Media is aspirated from the fibroblast cell culture plate, cells are washed with 1×PBS, and trypsinized via addition of 2 mls of trypsin/EDTA for one minute, followed by removal of all the trypsin solution. 2 mls of the SR human ES medium or DMEM/F12 medium is then added to the cells (without FBS), and cells are resuspended in the medium using a 5 ml pipet, pipeting up and down until no large clumps remain. About 10^5 cells/well are then added to a six well plate, with each well containing 3 mls of SR human ES medium. The cells are then mixed in this media. Cells are then placed in a warm incubator (e.g., 37° C. at 5% or 10% CO2). The cells are passaged every 3 days for a total of five or more passages. Ingredients of SR human stem cell culture medium are: 400 ml DMEM/F12 (Invitrogen 11330-032), 5 ml non-Essential Amino Acids (Invitrogen 11140-050), 2.5 ml L-Glutamine (Invitrogen 25030-018), […] β-mercaptoethanol (Sigma 7522, add 3.5 ul) and 100 ml Knockout Serum Replacer (Invitrogen 10828-028). Optionally, 4 ng/mL bFGF (R&D System Cat# 233-FB) is present. To make FGF stock, 1 ml of DMEM/F12 was added to dissolve 1 vial of 10 ug of FGF, with this solution aliquotted into five vials, then stored at −20° C. bFGF needed to be added freshly to the medium every time the method was performed. Lif was also needed for mouse cell cultures. Formulation of the SR component of serum-free medium also contained AgNO3 and other trace elements. For AgNO3-containing media, 1000× AgNO3 was added to the medium to a final concentration of 0.0001 mg/L.
To investigate the possibility that serum replacement (SR)-containing medium can promote the reprogramming and dedifferentiation of skin fibroblast cells into pluripotent stem-like cells, mouse skin fibroblast cells were cultured in fibroblast growth medium, and were then transferred by trypsinization to plates holding SR-containing medium. […] Twenty-four hours post-transfer, a majority of cells became small, round, bright-edged granulated cells (FIG. 1a). […]

[1] = system: fibroblast growth factor receptor 3 (FGFR3); assay: Western blotting for FGF Receptor-3 protein in fibroblast cells; details: Western blot; for FGFR3 expression: Thapsigargin 1 ug/ml, 24 hour timepoint
Text: […] […] All Images were acquired in the inverted microscope (Nikon TS100) at 10× magnification using the MetaMorph Imaging Software, and the scale bar is 100 μm.
(§2) (Up-regulation of FGFR3 had been previously shown to play an important role in the reprogramming of primordial germ cells into stem-like cells (Skottman et al. Stem Cell 24:151-167).)
In view of the observed involvement of the FGF signaling pathway, it was then examined whether Ca^2+ might be an important secondary messenger responsible for regulating the reprogramming of fibroblast cells induced by SR containing medium activation of the FGF signaling pathway. Thapsigargin, a tight-binding inhibitor for sarco/endoplasmic reticulum Ca^2+ ATPase, was added to the SR-containing medium at a concentration of 1 μg/ml (Durcova-Hills et al. Stem Cell 24:1441).

embryonic bodies = assay: In vitro differentiation of embryoid bodies from SR-iPS cells; details: 2 μM trans-retinoic acid, 10 days, gelatin coated plates
Method: One of the most important characteristics of stem-like cells is pluripotency. To investigate the SR-iPS stem cells have the multilineage differention potential as embryonic stem cells in vitro, different passage of iPS cells were used to form embryo bodis (EBs) one week's culture without passing in SR medium without Lif. The EBs continues to differentiate on gelatin coated plates and induced by 2 μM trans-retinoic acid for an additional 10 days. Expression of endoderm-, mesoderm-, and ectoderm-specific markers was examined by using antibodies raised against α-fetoprotein, smooth muscle actin, and β-tubulin III, respectively (21). For more specific cell lineage such as cardiomyocyte and smooth muscle cells differentiation, EBs were transferred to collagen-coated plate which contained α-MEM (cardiac differentiation medium) supplemented with 10 ng/ml platelet-derived growth factor-BB (PDGF-BB). Vascular endothelial growth medium supplemented with 50 ng/ml vascular endothelial growth factor (VEGF) was used for the smooth muscle growth differentiation. Two weeks after culturing the EBs in these medium, the cell morphology were examined by Immunofluorescent Staining with Troponin C and smooth muscle actin antibodies.

ES-like cells = assay: Maintenance of ES-like cells in SR-containing medium with growth factors; details: bFGF 4 ng/ml and Lif added together to SR-containing medium
Method: as §1
To investigate the possibility that serum replacement (SR)-containing medium can promote the reprogramming and dedifferentiation of skin fibroblast cells into pluripotent stem-like cells, mouse skin fibroblast cells were cultured in fibroblast growth medium, and were then transferred by trypsinization to plates holding SR-containing medium. […]

Ca^2+ influx = assay: Ca2+ signalling in fibroblast cells after transfer into SR-containing medium; details: after transfer of fibroblast cells
Text: as §2

Oct4 promoter = assay: Methylation status of the Oct4 promoter in fibroblast cells; details: before and after contact with SR medium

In the case of `C/C=C(/C)C(=O)O[C@H]1C(C)=C2[C@H]([C@@H]1OC(=O)CCCCCCC)[C@@](C)(OC(C)=O)C[C@H](OC(=O)CCC)[C@@]1(O)[C@H]2OC(=O)[C@@]1(C)O` [Thapsigargin, reference compound], the “conversion of skin fibroblast cells into stem cell-like cells” value (skin fibroblast cells) is reported as “prevented conversion of the fibroblast cells into stem-like cells”, the “conversion of skin fibroblast cells into stem cell-like cells” value (skin fibroblast cells; listed as thapsigargin) is reported as “prevented” and the FGFR3 expression [1] is reported as “down-regulated FGF receptor 3 (FGFR3) expression”. The FGFR3 expression ([1]; listed as thapsigargin) was “prevented”.
With `CCCCC/C=C\C/C=C\C/C=C\C/C=C\CCCC(=O)O` [acarchodonic acid] the “reprogramming / dedifferentiation of skin fibroblast cells into stem cell-like cells” value (“reprogramming / dedifferentiation” below) (skin fibroblast cells) was “required to create stem-like cells”.
For `CC1=C(/C=C/C(C)=C/C=C/C(C)=C/C(=O)O)C(C)(C)CCC1` [retinonic acid, trans-retinoic acid], the “differentiation into three germ layers (AFP, SM-Actin, β-tubulin III staining)” value (embryonic bodies) was “differentiation of the embryonic bodies into three germ layers”.
“bFGF: basic fibroblast growth factor (R&D System Cat# 233-FB)” was tested, and the “division and differentiation of ES-like cells” value (ES-like cells) was “promote division of the ES-like cells, while preventing differentiation of these cells”.
For “lipid-rich BSA: AlbuMAX I is the high-lipid BSA (Invitrogen)”, the “reprogramming / dedifferentiation” value (skin fibroblast cells) was “promoted the dedifferentiation of skin fibroblast cells into stem cell-like cells”, the “reprogramming / dedifferentiation” value (skin fibroblast cells; listed as high-lipid BSA) was “required to create stem-like cells” and the “FGFR3 expression after transfer into medium” value ([1]; 2, 4, 8, 12 hours after transfer) was “induced”. For the same compound, the “Ca^2+ influx / signalling” value (Ca^2+ influx) was “induced” and the “methylation status of the Oct4 promoter” value (Oct4 promoter) was “induced”.
